Source: US20140329177A1, “CYCLIC COMPOUND, METHOD FOR PRODUCING SAME, RADIATION-SENSITIVE COMPOSITION, AND RESIST PATTERN FORMATION METHOD” (MITSUBISHI GAS CHEMICAL COMPANY, INC., priority 2011, published 2014)

Assay: Solubility test of compound in safe solvent
Format: physicochemical
Settings: 23° C.; for dissolution amount in CHN: cyclohexanone (CHN); for dissolution amount in PGME: propylene glycol monomethyl ether (PGME)
Experimental: The dissolution amounts of compounds obtained in the above synthesis examples 1 to 4 and syntheses 1 and 2 in propylene glycol monomethyl ether (PGME) and cyclohexanone (CHN) were evaluated as follows.
A: 5.0% by mass≦dissolution amount B: 3.0% by mass≦dissolution amount<5.0% by mass C: dissolution amount<3.0% by mass
dissolution amount (% by mass)=mass (g) of compound dissolved in 100 g of solvent of 23° C./(100 g of mass of solvent+mass (g) of compound dissolved in 100 g of solvent of 23° C.)×100

| Compound | dissolution amount in CHN | dissolution amount in PGME |
| --- | --- | --- |
| CC(C)c1ccc(C2c3cc(c(O)cc3O)C(c3ccc(C(C)C)cc3)c3cc(c(O)cc3O)C(c3ccc(C(C)C)cc3)c3cc(c(O)cc3O)C(c3ccc(C(C)C)cc3)c3cc2c(O)cc3O)cc1 (stereo not shown) [CR-1A] | C (dissolution amount<3.0% by mass) | B (3.0% by mass≦dissolution amount<5.0% by mass) |
| Oc1cc(O)c2cc1C(c1ccc(C3CCCCC3)cc1)c1cc(c(O)cc1O)C(c1ccc(C3CCCCC3)cc1)c1cc(c(O)cc1O)C(c1ccc(C3CCCCC3)cc1)c1cc(c(O)cc1O)C2c1ccc(C2CCCCC2)cc1 (stereo not shown) [CR-2A] | B (3.0% by mass≦dissolution amount<5.0% by mass) | B (3.0% by mass≦dissolution amount<5.0% by mass) |
